Target: T1, KRAS (G12D)-HiBit in AsPc-1-KRAS (G12D)-HiBit-KI cell (Homo sapiens, UniProt P01116, G12D)
T1 construct: host or cells: AsPc-1-KRAS (G12D)-HiBit-KI cells (knock-in line)
Assay: G12D HiBit assay
Type: cell-based
Details: 24 hours compound treatment, absolute DC50, read-out: Average PHA DC50
In short: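 Degradation of endogenous HiBiT-tagged KRAS G12D in AsPc-1 knock-in cells read after 24 h compound exposure (0.015-300 nM, 3-fold steps) by Nano-Glo HiBiT lytic luminescence. Signal normalised to DMSO-only cells; absolute DC50 derived by curve fitting.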

T1 sequence (P01116 1-188 isoform P01116-2 G12D): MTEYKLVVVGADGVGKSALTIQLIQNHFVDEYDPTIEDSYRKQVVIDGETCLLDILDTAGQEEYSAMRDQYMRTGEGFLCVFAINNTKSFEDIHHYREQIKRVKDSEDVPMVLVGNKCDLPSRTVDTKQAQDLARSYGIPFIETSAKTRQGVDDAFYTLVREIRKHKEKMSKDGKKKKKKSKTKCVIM

## C#Cc1c(F)ccc2cccc(-c3ncc4c(N5CC6CCC(C5)N6)nc(OC[C@@]56CCCN5[C@H](COC(=O)N5CCC(CCOCC#Cc7ccc8c(c7)n(C)c(=O)n8C7CCC(=O)NC7=O)CC5)CC6)nc4c3F)c12 (stereo partly drawn) [Compound 105, [(3S,8S)-8-[[4-(3,8-diazabicyclo[3.2.1]octan-3-yl)-7-(8-ethynyl-7-fluoro-1-naphthyl)-8-fluoro-pyrido[4,3-d]pyrimidin-2-yl]oxymethyl]-1,2,3,5,6,7-hexahydropyrrolizin-3-yl]methyl 4-[2-[3-[1-(2,6-dioxo-3-piperidyl)-3-methyl-2-oxo-benzimidazol-5-yl]prop-2-ynoxy]ethyl]piperidine-1-carboxylate]
  DC50: < 100 nM

## C#Cc1c(F)ccc2cccc(-c3ncc4c(N5CC6CCC(C5)N6)nc(OC[C@@]56CCCN5[C@H](COC(=O)N5CCC(OCCCCCc7cccc8c7n(C)c(=O)n8C7CCC(=O)NC7=O)CC5)CC6)nc4c3F)c12 (stereo partly drawn) [Compound 122, [(3S,8S)-8-[[4-(3,8-diazabicyclo[3.2.1]octan-3-yl)-7-(8-ethynyl-7-fluoro-1-naphthyl)-8-fluoro-pyrido[4,3-d]pyrimidin-2-yl]oxymethyl]-1,2,3,5,6,7-hexahydropyrrolizin-3-yl]methyl4-[5-[1-(2,6-dioxo-3-piperidyl)-3-methyl-2-oxo-benzimidazol-4-yl]pentoxy]piperidine-1-carboxylate]
  DC50: < 100 nM

## C#Cc1c(F)ccc2cccc(-c3ncc4c(N5CC6CCC(C5)N6)nc(OC[C@@]56CCCN5[C@H](COC(=O)N5CC(CN7CCN(c8ccc9c(c8)n(C)c(=O)n9C8CCC(=O)NC8=O)CC7)C5)CC6)nc4c3F)c12 (stereo partly drawn) [Compound 42]
  DC50: < 100 nM

## C#Cc1c(F)ccc2cccc(-c3ncc4c(N5CC6CCC(C5)N6)nc(OC[C@@]56CCCN5[C@H](COC(=O)N5CCC(CN7CCC(c8cccc9c8n(C)c(=O)n9C8CCC(=O)N(C)C8=O)CC7)CC5)CC6)nc4c3F)c12 (stereo partly drawn) [Compound 79]
  DC50: ≥ 300 nM

## C#Cc1c(F)ccc2cccc(-c3ncc4c(N5CC6CCC(C5)N6)nc(OC[C@@]56CCCN5[C@H](COC(=O)N5CCC7(CC5)CN(CCCc5cccc8c5n(C)c(=O)n8C5CCC(=O)NC5=O)CCO7)CC6)nc4c3F)c12 (stereo partly drawn) [Compound 40]
  DC50: < 100 nM

## C#Cc1c(F)ccc2cccc(-c3ncc4c(N5CC6CCC(C5)N6)nc(OC[C@@]56CCCN5[C@H](COC(=O)N5CCC(N7CCC(Oc8cccc9c8n(C)c(=O)n9C8CCC(=O)NC8=O)CC7)CC5)CC6)nc4c3F)c12 (stereo partly drawn) [Compound 66]
  DC50: < 100 nM

## C#Cc1c(F)ccc2cccc(-c3ncc4c(N5CC6CCC(C5)N6)nc(OC[C@@]56CCCN5[C@H](COC(=O)N5CCC(OCCC#Cc7cccc8c7n(C)c(=O)n8C7CCC(=O)NC7=O)CC5)CC6)nc4c3F)c12 (stereo partly drawn) [Compound 107, [(3S,8S)-8-[[4-(3,8-diazabicyclo[3.2.1]octan-3-yl)-7-(8-ethynyl-7-fluoro-1-naphthyl)-8-fluoro-pyrido[4,3-d]pyrimidin-2-yl]oxymethyl]-1,2,3,5,6,7-hexahydropyrrolizin-3-yl]methyl 4-[4-[1-(2,6-dioxo-3-piperidyl)-3-methyl-2-oxo-benzimidazol-4-yl]but-3-ynoxy]piperidine-1-carboxylate]
  DC50: < 100 nM

## C#Cc1c(F)ccc2cccc(-c3ncc4c(N5CC6CCC(C5)N6)nc(OC[C@@]56CCCN5[C@H](COC(=O)N5CCC(OCc7ccc8c(c7)n(C)c(=O)n8C7CCC(=O)NC7=O)CC5)CC6)nc4c3F)c12 (stereo partly drawn) [Compound 116, [(3S,8S)-8-[[4-(3,8-Diazabicyclo[3.2.1]octan-3-yl)-7-(8-ethynyl-7-fluoro-1-naphthyl)-8-fluoro-pyrido[4,3-d]pyrimidin-2-yl]oxymethyl]-1,2,3,5,6,7-hexahydropyrrolizin-3-yl]methyl4-[[1-(2,6-dioxo-3-piperidyl)-3-methyl-2-oxo-benzimidazol-5-yl]methoxy]piperidine-1-carboxylate]
  DC50: ≥ 300 nM

## C#Cc1c(F)ccc2cccc(-c3ncc4c(N5CC6CCC(C5)N6)nc(OC[C@@]56CCCN5[C@H](COC(=O)N5CC(CN7CCN(c8cccc9c8n(C)c(=O)n9C8CCC(=O)NC8=O)CC7)C5)CC6)nc4c3F)c12 (stereo partly drawn) [Compound 113, [(3S,8S)-8-[[4-(3,8-Diazabicyclo[3.2.1]octan-3-yl)-7-(8-ethynyl-7-fluoro-1-naphthyl)-8-fluoro-pyrido[4,3-d]pyrimidin-2-yl]oxymethyl]-1,2,3,5,6,7-hexahydropyrrolizin-3-yl]methyl 3-[[4-[1-(2,6-dioxo-3-piperidyl)-3-methyl-2-oxo-benzimidazol-4-yl]piperazin-1-yl]methyl]azetidine-1-carboxylate]
  DC50: 100 to 300 nM

## C#Cc1c(F)ccc2cccc(-c3ncc4c(N5CC6CCC(C5)N6)nc(OC[C@@]56CCCN5[C@H](COC(=O)N5CCC(OCCc7cccc8c7n(C)c(=O)n8C7CCC(=O)NC7=O)CC5)CC6)nc4c3F)c12 (stereo partly drawn) [Compound 135, [(3S,8S)-8-[[4-(3,8-Diazabicyclo[3.2.1]octan-3-yl)-7-(8-ethynyl-7-fluoro-1-naphthyl)-8-fluoro-pyrido[4,3-d]pyrimidin-2-yl]oxymethyl]-1,2,3,5,6,7-hexahydropyrrolizin-3-yl]methyl 4-[2-[1-(2,6-dioxo-3-piperidyl)-3-methyl-2-oxo-benzimidazol-4-yl]ethoxy]piperidine-1-carboxylate]
  DC50: < 100 nM

## C#Cc1c(F)ccc2cccc(-c3ncc4c(N5CC6CCC(C5)N6)nc(OC[C@@]56CCCN5[C@H](COC(=O)N5CCC(C7CCN(Cc8cccc9c8n(C)c(=O)n9C8CCC(=O)NC8=O)CC7)CC5)CC6)nc4c3F)c12 (stereo partly drawn) [Compound 51]
  DC50: < 100 nM

## C#Cc1c(F)ccc2cccc(-c3ncc4c(N5CC6CCC(C5)N6)nc(OC[C@@]56CCCN5[C@H](COC(=O)NCCCC(=O)N5CCC(c7cccc8c7n(C)c(=O)n8C7CCC(=O)NC7=O)CC5)CC6)nc4c3F)c12 (stereo partly drawn) [Compound 39, [(3S,8S)-8-[[4-(3,8-Diazabicyclo[3.2.1]octan-3-yl)-7-(8-ethynyl-7-fluoro-1-naphthyl)-8-fluoro-pyrido[4,3-d]pyrimidin-2-yl]oxymethyl]-1,2,3,5,6,7-hexahydropyrrolizin-3-yl]methyl N-[4-[4-[1-(2,6-dioxo-3-piperidyl)-3-methyl-2-oxo-benzimidazol-4-yl]-1-piperidyl]-4-oxo-butyl]carbamate]
  DC50: ≥ 300 nM

## C#Cc1c(F)ccc2cc(O)cc(-c3ncc4c(N5CC6CCC(C5)N6)nc(OC[C@@]56CCCN5[C@H](COC(=O)N5CCC(CN7CCC(c8ccc9c(c8)n(C)c(=O)n9C8CCC(=O)NC8=O)CC7)CC5)CC6)nc4c3F)c12 (stereo partly drawn) [Compound 82, [(3S,8S)-8-[[4-(3,8-Diazabicyclo[3.2.1]octan-3-yl)-7-(8-ethynyl-7-fluoro-3-hydroxy-1-naphthyl)-8-fluoro-pyrido[4,3-d]pyrimidin-2-yl]oxymethyl]-1,2,3,5,6,7-hexahydropyrrolizin-3-yl]methyl 4-[[4-[1-(2,6-dioxo-3-piperidyl)-3-methyl-2-oxo-benzimidazol-5-yl]-1-piperidyl]methyl] piperidine-1-carboxylate]
  DC50: < 100 nM

## C#Cc1c(F)ccc2cccc(-c3ncc4c(N5CC6CCC(C5)N6)nc(OC[C@@]56CCCN5[C@H](COC(=O)N5CCC(CCn7cc(-c8ccc9c(c8)n(C)c(=O)n9C8CCC(=O)NC8=O)nn7)CC5)CC6)nc4c3F)c12 (stereo partly drawn) [Compound 95, [(3S,8S)-8-[[4-(3,8-Diazabicyclo[3.2.1]octan-3-yl)-7-(8-ethynyl-7-fluoro-1-naphthyl)-8-fluoro-pyrido[4,3-d]pyrimidin-2-yl]oxymethyl]-1,2,3,5,6,7-hexahydropyrrolizin-3-yl]methyl 4-[2-[4-[1-(2,6-dioxo-3-piperidyl)-3-methyl-2-oxo-benzimidazol-5-yl]triazol-1-yl]ethyl]piperidine-1-carboxylate]
  DC50: ≥ 300 nM

## C#Cc1c(F)ccc2cccc(-c3ncc4c(N5CC6CCC(C5)N6)nc(OC[C@@]56CCCN5[C@H](COC(=O)N5CCC(CN(C)C7CCN(c8cccc9c8n(C)c(=O)n9C8CCC(=O)NC8=O)CC7)CC5)CC6)nc4c3F)c12 (stereo partly drawn) [Compound 108, [(3S,8S)-8-[[4-(3,8-Diazabicyclo[3.2.1]octan-3-yl)-7-(8-ethynyl-7-fluoro-1-naphthyl)-8-fluoro-pyrido[4,3-d]pyrimidin-2-yl]oxymethyl]-1,2,3,5,6,7-hexahydropyrrolizin-3-yl]methyl4-[[[1-[1-(2,6-dioxo-3-piperidyl)-3-methyl-2-oxo-benzimidazol-4-yl]-4-piperidyl]-methyl-amino]methyl]piperidine-1-carboxylate]
  DC50: < 100 nM

## C#Cc1c(F)ccc2cccc(-c3ncc4c(N5CC6CCC(C5)N6)nc(OC[C@@]56CCCN5[C@H](COC(=O)N5CCC(C7CCN(Cc8ccc9c(c8)n(C)c(=O)n9C8CCC(=O)NC8=O)CC7)CC5)CC6)nc4c3F)c12 (stereo partly drawn) [Compound 55, [(3S,8S)-8-[[4-(3,8-Diazabicyclo[3.2.1]octan-3-yl)-7-(8-ethynyl-7-fluoro-1-naphthyl)-8-fluoro-pyrido[4,3-d]pyrimidin-2-yl]oxymethyl]-1,2,3,5,6,7-hexahydropyrrolizin-3-yl]methyl 4-[1-[[1-(2,6-dioxo-3-piperidyl)-3-methyl-2-oxo-benzimidazol-5-yl]methyl]-4-piperidyl]piperidine-1-carboxylate]
  DC50: < 100 nM

## C#Cc1c(F)ccc2cccc(-c3ncc4c(N5CC6CCC(C5)N6)nc(OC[C@@]56CCCN5[C@H](COC(=O)N5CCC(OCC7CCN(Cc8cccc9c8n(C)c(=O)n9C8CCC(=O)NC8=O)CC7)CC5)CC6)nc4c3F)c12 (stereo partly drawn) [Compound 62, [(3S,8S)-8-[[4-(3,8-Diazabicyclo[3.2.1]octan-3-yl)-7-(8-ethynyl-7-fluoro-1-naphthyl) 8-fluoro-pyrido[4,3-d]pyrimidin-2-yl]oxymethyl]-1,2,3,5,6,7-hexahydropyrrolizin-3-yl]methyl4-[[1-[[1-(2,6-dioxo-3-piperidyl)-3-methyl-2-oxo-benzimidazol-4-yl]methyl]-4-piperidyl]methoxy]piperidine-1-carboxylate]
  DC50: < 100 nM

## C#Cc1c(F)ccc2cccc(-c3ncc4c(N5CC6CCC(C5)N6)nc(OC[C@@]56CCCN5[C@H](COC(=O)N5CCN(C7CCN(Cc8ccc9c(c8)n(C)c(=O)n9C8CCC(=O)NC8=O)CC7)CC5)CC6)nc4c3F)c12 (stereo partly drawn) [Compound 72]
  DC50: 100 to 300 nM
